Experiment [1] deals with T1, Glutamate receptor ionotropic, AMPA (Rattus norvegicus, UniProt P19490+P19491+P19492+P19493). Put plainly: In vitro binding affinity towards ionotropic glutamate receptor AMPA using [3H]AMPA as radioligand in rat cortical membrane preparations. Type of experiment: cell membranes.
In the next experiment the target is Glutamate NMDA receptor. The experiment in a line: In vitro binding affinity towards glycine modulatory site on the NMDA receptors using [3H]DCKA as radioligand in rat cortical membrane preparations. Type of experiment: cell membranes.
The test system of experiment [2] is Mus musculus. Put plainly: In vivo activity determined by Maximum electroshock induced seizures (MES) assay in mice after ip administration. Type of experiment: functional.
Experiment [3] deals with Mus musculus. Put plainly: In vivo activity determined by Maximum electroshock induced seizures (MES) assay in mice after iv administration. Type of experiment: functional.
Experiment [4] addresses T1, Glutamate receptor ionotropic, AMPA. The experiment in a line: In vitro binding affinity towards Ionotropic glutamate receptor AMPA using [3H]AMPA as radioligand in rat cortical membrane preparations. Type of experiment: cell membranes.
Where [5] appears, read: Mus musculus, ip, read-out: ED50.

Regarding `CC(C)(C)OC(=O)N1CCCC12c1ccccc1-c1nc(O)c3nccn3c12` (configuration not stated), the IC50 in experiment [1] was above 10000 nM; at Glutamate NMDA receptor, 600 nM.

With `CCN1CCCC12c1ccccc1-c1nc(O)c3nccn3c12` (configuration not stated), the IC50 turned out to be 620 nM in experiment [1] and 530 nM at Glutamate NMDA receptor. Besides, the ED50 in the experiment on Mus musculus [2] (setting [5]) stood at 54 mg/kg.

`Oc1nc2c(n3ccnc13)C1(CCCCN1)c1ccccc1-2` (configuration not stated): the IC50 in experiment [1] amounted to 390 nM; at Glutamate NMDA receptor, 1180 nM. Moreover, in the experiment with Mus musculus [2] (setting [5]), the ED50 is 45 mg/kg.

As to `CCCN1CCCC12c1ccccc1-c1nc(O)c3nccn3c12` (configuration not stated), the IC50 is 4300 nM in experiment [1] and 470 nM at Glutamate NMDA receptor.

In the case of `CN1CCCC12c1ccccc1-c1nc(O)c3nccn3c12` (stereo in doubt; (+)-3e), the IC50 was found to be 86 nM in experiment [1] and 172 nM at Glutamate NMDA receptor. Also, the ED50 in the experiment on Mus musculus [2] turned out to be 17 mg/kg; in the experiment with Mus musculus [3] (Mus musculus, iv, read-out: ED50), 7 mg/kg.

As to `Oc1nc2c(n3ccnc13)C1(CCCC1)c1ccccc1-2`, the values for the IC50 (in experiment [1]; on Glutamate NMDA receptor) were 1600 nM and 1400 nM, respectively.

Regarding `Oc1nc2c(n3ccnc13)C1(CCNCC1)c1ccccc1-2`, the IC50 in experiment [1] was 380 nM; on Glutamate NMDA receptor, 2000 nM.

With `O=c1[nH]c2cc(-n3ccnc3)c([N+](=O)[O-])cc2[nH]c1=O` [YM-90K], the IC50 in experiment [1] worked out at 350 nM; on Glutamate NMDA receptor, 10400 nM. In addition, in the experiment with Mus musculus [2] (setting [5]), the ED50 was 12 mg/kg.

Take `CC1(C)c2ccccc2-c2nc(O)c3nccn3c21`: the IC50 was 4400 nM in experiment [1] and 1000 nM at Glutamate NMDA receptor.

Turning to `CNC1(C)c2ccccc2-c2nc(O)c3nccn3c21` (configuration not stated), the IC50 was found to be 3400 nM in experiment [1] and 2740 nM on Glutamate NMDA receptor.

`O=C(O)[C@@H]1C[C@H]2C[C@@H](CCc3nn[nH]n3)CC[C@H]2CN1` [TEZAMPANEL ANHYDROUS]: the figures for the IC50 (in experiment [1]; on Glutamate NMDA receptor) were 600 nM and above 10000 nM, respectively. Moreover, the ED50 in the experiment on Mus musculus [2] (setting [5]) amounted to 4 mg/kg.

`CC(=O)N1CCCC12c1ccccc1-c1nc(O)c3nccn3c12` (configuration not stated): the IC50 is 610 nM in experiment [1] and 560 nM at Glutamate NMDA receptor.

Consider `CN1CCCC12c1ccccc1-c1nc(O)c3nccn3c12` (single isomer, unassigned; (-)), for which the IC50 in experiment [1] stood at 4900 nM; on Glutamate NMDA receptor it was 1160 nM. In addition, the ED50 with Mus musculus [2] was 80 mg/kg.

Take `Oc1nc2c(n3ccnc13)Cc1ccccc1-2`: the figures for the IC50 (in experiment [1]; on Glutamate NMDA receptor) were 760 nM and 3000 nM, respectively. Moreover, in the experiment with Mus musculus [2] (setting [5]), the ED50 was determined as 62 mg/kg.

`CN1CCCC12c1ccccc1-c1nc(O)c3nccn3c12` (stereo in doubt; 3e): the IC50 in experiment [1] stood at 200 nM; on Glutamate NMDA receptor, 420 nM. Further, the figures for the ED50 with Mus musculus [2] and in the experiment with Mus musculus [3] were 31 mg/kg and 10 mg/kg, respectively.

As to `Oc1nc2c(n3ccnc13)C1(CCCN1Cc1ccccc1)c1ccccc1-2` (configuration not stated), the IC50 amounted to 10000 nM in experiment [1] and 1300 nM on Glutamate NMDA receptor.

In the case of `Oc1nc2c(n3ccnc13)C1(CCCN1)c1ccccc1-2` (configuration not stated), the IC50 in experiment [4] amounted to 250 nM; on Glutamate NMDA receptor, 280 nM. Further, the ED50 in the experiment with Mus musculus [2] (setting [5]) is 80 mg/kg.

Turning to `O=C(NCc1ccccc1)N1CCCC12c1ccccc1-c1nc(O)c3nccn3c12` (configuration not stated), the IC50 was 10000 nM in experiment [1] and 900 nM on Glutamate NMDA receptor.

In the case of `Oc1nc2c(n3ccnc13)C1(CC1)c1ccccc1-2`, the IC50 in experiment [1] was determined as 2300 nM; on Glutamate NMDA receptor, 600 nM.

Regarding `O=C(O)CCC(=O)N1CCCC12c1ccccc1-c1nc(O)c3nccn3c12` (configuration not stated), the IC50 in experiment [1] came to 360 nM; at Glutamate NMDA receptor it was 10000 nM. In addition, the ED50 in the experiment on Mus musculus [2] (setting [5]) stood at 10 mg/kg.

As for `CC1(N)c2ccccc2-c2nc(O)c3nccn3c21` (configuration not stated), the IC50 in experiment [1] was determined as 2500 nM; on Glutamate NMDA receptor, 1400 nM. In addition, in the experiment on Mus musculus [2] (setting [5]), the ED50 was determined as 30 mg/kg.

Consider `NCC(=O)N1CCCC12c1ccccc1-c1nc(O)c3nccn3c12` (configuration not stated), for which the results for the IC50 (in experiment [1]; on Glutamate NMDA receptor) were 830 nM and 2800 nM, respectively. Further, the ED50 with Mus musculus [2] (setting [5]) is 70 mg/kg.

In the case of `CCCC1(N)c2ccccc2-c2nc(O)c3nccn3c21` (configuration not stated), the IC50 in experiment [1] was found to be 420 nM; at Glutamate NMDA receptor it was 520 nM. Besides, the ED50 in the experiment with Mus musculus [2] (setting [5]) is 80 mg/kg.

Take `O=C1CCC2(N1)c1ccccc1-c1nc(O)c3nccn3c12` (configuration not stated): the IC50 was found to be 1500 nM in experiment [1] and 1700 nM on Glutamate NMDA receptor.

As to `O=C(Nc1ccccc1)N1CCCC12c1ccccc1-c1nc(O)c3nccn3c12` (configuration not stated), the IC50 in experiment [1] turned out to be 7100 nM; on Glutamate NMDA receptor, 130 nM.

As for `CNC(=O)N1CCCC12c1ccccc1-c1nc(O)c3nccn3c12` (configuration not stated), the IC50 in experiment [1] worked out at 4000 nM; at Glutamate NMDA receptor it was 1700 nM.

Regarding `Oc1nc2c(n3ccnc13)C1(CCNC1)c1ccccc1-2` (configuration not stated), the IC50 in experiment [1] was determined as 200 nM; on Glutamate NMDA receptor, 640 nM. Besides, the ED50 in the experiment with Mus musculus [2] (setting [5]) was above 80 mg/kg.

`CCCCC1(N)c2ccccc2-c2nc(O)c3nccn3c21` (configuration not stated): the IC50 in experiment [1] came to 1700 nM; on Glutamate NMDA receptor, 300 nM.

For orientation: IC50 means the concentration that inhibits the measured activity by half. High values mean lower potency, low ones higher potency. The ED50 is the dose that gives a 50% effect, or the effect in half of the subjects.

(Values after ChEMBL document CHEMBL1132526, “Spiro-imidazo[1,2-a]indeno[1,2-e]pyrazine-4-one derivatives are mixed AMPA and NMDA glycine-site antagonists active in vivo” (Bioorg Med Chem Lett, 1999).)
